Drawing on PubChem BioAssay (NCI), this text covers GI50 and TGI for 5 molecules.

Test systems include COLO 205 colon; EKVX NSCLC; HCT-15 colon; HOP-92 NSCLC; K-562 leukemia; LOX IMVI melanoma; MDA-MB-231 breast; RPMI-8226 leukemia; RXF 393 renal; SF-268 CNS.
What all share (assay): inhibition of tumour cell growth, NCI panel, 48 h

Where “and” joins values, the source holds several entries; their conditions need not be identical. Identical values can stand only once.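 Following 48 hours of exposure in 96-well plates, responses at five concentrations were used to interpolate endpoints linearly. GI50: concentration for 50% inhibition of growth. TGI: concentration producing complete growth inhibition.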

With `CN(C)CCN1C(=O)c2cccc3cc(N)cc(c23)C1=O`, the GI50 was 2.23 µM in the experiment with COLO 205 colon; 4.22 µM in the experiment on EKVX NSCLC; 2.28 µM in the experiment on HOP-92 NSCLC; 2.18 µM in the experiment on LOX IMVI melanoma; 8.01 µM with MDA-MB-231 breast; 3.37 µM in the experiment with RPMI-8226 leukemia. The GI50 in the experiment with SF-268 CNS was 3.83 µM. Further, the TGI in the experiment with COLO 205 colon was 14.7 µM and 7.19 µM; in the experiment on EKVX NSCLC it was 39.7 µM and 15.3 µM; in the experiment on HCT-15 colon, > 50 µM and 16 µM; with HOP-92 NSCLC, 15.4 µM and 13.1 µM; in the experiment on K-562 leukemia it was > 100 µM and 37.4 µM; in the experiment on LOX IMVI melanoma, > 31.3 µM and 7.29 µM. The TGI in the experiment with MDA-MB-231 breast was 34.8 µM and 9.64 µM; in the experiment with RPMI-8226 leukemia it was 25.2 µM and 19.9 µM; with RXF 393 renal it was 18.1 µM and 10.6 µM; in the experiment on SF-268 CNS, 25.6 µM and 28.9 µM.
As for `O=C(O)c1c2c(c(O)c3c1CN(C1CCCCC1)CO3)OCN(C1CCCCC1)C2`, the TGI in the experiment on COLO 205 colon is greater than 100 µM; in the experiment on EKVX NSCLC it was greater than 100 µM; in the experiment on HCT-15 colon, greater than 100 µM; in the experiment on HOP-92 NSCLC, greater than 100 µM; with K-562 leukemia, greater than 100 µM; in the experiment with LOX IMVI melanoma it was 39.7 µM. Moreover, the TGI with MDA-MB-231 breast, in the experiment on RPMI-8226 leukemia, in the experiment with RXF 393 renal and in the experiment with SF-268 CNS was greater than 100 µM in each case.
Regarding `CCOc1ccc2nc3cc(N)ccc3c(N)c2c1`, the GI50 is 3 µM and 1.25 µM with COLO 205 colon; 9.76 µM and 7.63 µM in the experiment with EKVX NSCLC; 23.2 µM and 12.1 µM in the experiment with HCT-15 colon; 3.4 µM and 2.96 µM in the experiment on HOP-92 NSCLC; 6.03 µM and 6.26 µM in the experiment on K-562 leukemia; 4.53 µM and 2.95 µM in the experiment with LOX IMVI melanoma. Also, the GI50 in the experiment on MDA-MB-231 breast is 10.2 µM and 4.44 µM; in the experiment on RPMI-8226 leukemia, 15.4 µM and 13.9 µM; with RXF 393 renal, 4.97 µM and 2.38 µM; in the experiment on SF-268 CNS, 0.385 µM and 0.324 µM. In addition, the TGI with COLO 205 colon was 13.4 µM and 4.69 µM; with EKVX NSCLC, 36.7 µM and 41.4 µM; in the experiment on HCT-15 colon it was > 100 µM and 33.7 µM; with HOP-92 NSCLC, 16.4 µM and 11.3 µM; in the experiment with K-562 leukemia it was 20.2 µM and 25.4 µM; in the experiment on LOX IMVI melanoma, 20 µM and 12.4 µM. Besides, the TGI in the experiment with MDA-MB-231 breast was 22.8 µM and 17.6 µM; in the experiment with RPMI-8226 leukemia, 43.5 µM and 38.4 µM; with RXF 393 renal it was 20.3 µM and 14.6 µM; with SF-268 CNS it was 1.79 µM and 1.68 µM.
Regarding `O=C(Nc1ccc(Nc2ccc3c(c2)C(=O)c2ccccc2C3=O)c2c1C(=O)c1ccccc1C2=O)c1ccccc1`, the TGI in the experiment with COLO 205 colon, with EKVX NSCLC, with HCT-15 colon, in the experiment on HOP-92 NSCLC, in the experiment on K-562 leukemia and in the experiment with LOX IMVI melanoma was greater than 100 µM each time. The TGI in the experiment on MDA-MB-231 breast is greater than 100 µM; with RPMI-8226 leukemia, greater than 100 µM; in the experiment on RXF 393 renal it was greater than 96.6 µM; with SF-268 CNS, greater than 100 µM.
For `C=CC(=O)N1CCN([C@@H](CC2CC2)c2ccc([C@H](C)Nc3ncc4c(n3)N(CC)C(=O)OC4)cc2)CC1`, the GI50 was 16.9 µM with COLO 205 colon; 14.1 µM with EKVX NSCLC; 10.3 µM in the experiment on HCT-15 colon; 1.47 µM in the experiment on HOP-92 NSCLC; 5.34 µM with K-562 leukemia; 11.1 µM with LOX IMVI melanoma. The GI50 is 12 µM in the experiment with MDA-MB-231 breast, 4.95 µM with RPMI-8226 leukemia, 4.62 µM in the experiment on RXF 393 renal and 11.7 µM in the experiment on SF-268 CNS. The TGI with COLO 205 colon was found to be 36 µM; in the experiment with EKVX NSCLC, 27.6 µM; in the experiment with HCT-15 colon it was 25.5 µM; in the experiment on HOP-92 NSCLC, 8.06 µM; in the experiment with K-562 leukemia, 69.5 µM; with LOX IMVI melanoma, 26.6 µM. For the same molecule, the TGI came out at 27.4 µM with MDA-MB-231 breast, 24.9 µM in the experiment on RPMI-8226 leukemia, 20.9 µM in the experiment with RXF 393 renal and 28.5 µM in the experiment on SF-268 CNS.
